Data as given in patent publication US20080248008A1, “Inhibitors of Protein Kinase a Anchoring” (priority 2004, published 2008).

Assays:
Y1 adrenal cells = test: Progesterone production in Y1 adrenal cells; assay type: cell-based, mouse; settings: Actinomycin D treated cells
Description: Mouse adrenocortical Y1 cells were obtained from ATCC (Cat. No. CCL-79) and maintained in DMEM/HAM'S F-12 (Cat. No. E15-813, PAA Laboratories GmbH, Pasching, Austria) supplemented with 100 μg/ml streptomycin, 100 U/ml penicillin and 10% (v/v) fetal calf serum in a humidified atmosphere of 5% CO2 and split by trypsination at less than 80% confluence.
Progesterone production and StAR protein level. Y1 cells were cultured overnight in 6-well plates at the density of 1.5×10^6 cells per well. To increase the basal level of StAR, the cells were pre-stimulated with 10 μM forskolin for 1 hour, washed twice with medium, before peptide loading. Thereafter, the cells were loaded with 50 μM of the arginine-coupled peptide for 5 hours before being treated with 5 μg/ml Actinomyocin D (Cat. No. A-9415, Sigma) for 30 min and stimulated with 10 μM forskolin (Cat. No. 344270, Calbiochem) or 10 IU/ml ACTH (Cat. No. A-6303, Sigma) for 12 hours. […] Progesterone in the cell medium was measured by using either Spectria Progesterone RIA (Cat. No. 68521, Orion Diagnostica, Espoo, Finland) or DELFIA progesterone kit (Cat. No. A066-101, PerkinElmer) following the conditions recommended by the manufacture. The cells were lysed and the StAR protein was analysed by western blotting and the level measured by densiometric analysis.

[1] = target: T1, RI in lipid rafts of Jurkat T cells (Homo sapiens, UniProt P10644); test: PKA content of lipid rafts from transfected Jurkat T cells (densitometry); assay type: cell-based; settings: n=1
T1 construct: endogenous in cells; host or cells: Jurkat T cells
Description: Densitometric analysis. The densitometric analysis was performed using Scion Image (www.scioncorp.com) (Scion Coorperation, Mo., USA) or Quantity One version 4.5.0, (BioRad).
Cell cultures and transient transfections. The human leukemic T cell line Jurkat (clone E6.1), Jurkat TAg, a derivative of the Jurkat cell line stably transfected with the SV40 large T antigen (Clipstone, N. A., and Crabtree, G. R., 1992, Nature. 357:695-697) was cultured at 37° C. in RPMI medium (Gibco BRL) supplemented with 10% fetal calf serum, 2 mM glutamine, penicillin, streptomycin, 1 mM sodium pyruvate and nonessential amino acids. For transfections, cells (5×10^6) in 0.4 ml Opti-MEM were mixed with 40 μg of each DNA construct (GFP-MEME3 or GFP-Scrambled MEME3) in electroporation cuvettes with a 0.4-cm electrode gap (BioRad Laboratories) and subjected to an electric field of 250 V/cm with 960 μF capacitance. A total of 2×10^7 cells were transfected per DNA construct. The cells were expanded in complete medium and harvested after 20 h. The transfection efficiency was determined by microscopic analysis.
Immunoblot analysis. Immunocomplexes and lipid raft fractions were analysed on a 10, 15% or 4-20% PAGE and blotted onto PVDF membranes. […]
Lipid Raft Purification. […] The fractions were analysed by immunoblot analysis. […]

## LEQYANQLADQIIKEATERRRRRRRRRrr [MEME3-Arg11]
Y1 adrenal cells
  inhibition relative to that with mutated PKA phosphorylation site in StAR: approximately 80%
Y1 adrenal cells; forskolin
  reduction of progesterone production compared to SM3-Arg11: 60%

## CC[C@H](C)[C@H](NC(=O)[C@H](CCC(N)=O)NC(=O)[C@H](CC(=O)O)NC(=O)[C@H](C)NC(=O)[C@H](CC(C)C)NC(=O)[C@H](CCC(N)=O)NC(=O)[C@H](CC(N)=O)NC(=O)[C@H](C)NC(=O)[C@H](Cc1ccc(O)cc1)NC(=O)[C@H](CCC(N)=O)NC(=O)[C@H](CCC(=O)O)NC(=O)[C@@H](N)CC(C)C)C(=O)N[C@H](C(=O)N[C@@H](CCCCN)C(=O)N[C@@H](CCC(=O)O)C(=O)N[C@@H](C)C(=O)N[C@H](C(=O)N[C@@H](CCC(=O)O)C(=O)N[C@@H](CCCCNC(=O)c1ccc2c(c1)C(=O)OC21c2ccc(O)cc2Oc2cc(O)ccc21)C(N)=O)[C@@H](C)O)[C@@H](C)CC [MEME3]
[1]
  reduction of RI concentration in lipid rafts compared to SM3: 40%
